# Measured values taken from PubChem BioAssay (NCI).
#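 Cells were grown in 96-well plates and exposed to each compound for 48 hours at five concentrations; endpoints were interpolated linearly between bracketing concentrations, or set to the highest concentration if not reached. TGI marks complete inhibition of growth.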
# Tests used:
# Assay in all cases: NCI-60 cell line screen, 48 h
# [1] = test system: 786-0 renal
# [2] = test system: A498 renal
# [3] = test system: A549 NSCLC
# [4] = test system: ACHN renal
# [5] = test system: BT-549 breast
# [6] = test system: CAKI-1 renal
# [7] = test system: CCRF-CEM leukemia
# [8] = test system: COLO 205 colon
# [9] = test system: DU-145 prostate
# [10] = test system: EKVX NSCLC
# [11] = test system: HCC-2998 colon
# [12] = test system: HCT-116 colon
# [13] = test system: HCT-15 colon
# [14] = test system: HL-60(TB) leukemia
# [15] = test system: HOP-62 NSCLC
# [16] = test system: HOP-92 NSCLC
# [17] = test system: HS 578T breast
# [18] = test system: HT29 colon
# [19] = test system: IGROV1 ovarian
# [20] = test system: K-562 leukemia
# [21] = test system: LOX IMVI melanoma
# [22] = test system: MALME-3M melanoma
# [23] = test system: MCF7 breast
# [24] = test system: MDA-MB-231 breast
# [25] = test system: MDA-MB-435
# [26] = test system: MDA-N
# [27] = test system: MOLT-4 leukemia
# [28] = test system: NCI-H226 lung
# [29] = test system: NCI-H23 lung
# [30] = test system: NCI-H460 lung
# [31] = test system: NCI-H522 lung
# [32] = test system: NCI/ADR-RES ovarian
# [33] = test system: OVCAR-3 ovarian
# [34] = test system: OVCAR-4 ovarian
# [35] = test system: OVCAR-5 ovarian
# [36] = test system: OVCAR-8 ovarian
# [37] = test system: PC-3 prostate
# [38] = test system: RPMI-8226 leukemia
# [39] = test system: RXF 393 renal
# [40] = test system: SF-268 CNS
# [41] = test system: SF-295 CNS
# [42] = test system: SF-539 CNS
# [43] = test system: SK-MEL-2 melanoma
# [44] = test system: SK-MEL-28 melanoma
# [45] = test system: SK-MEL-5 melanoma
# [46] = test system: SK-OV-3 ovarian
# [47] = test system: SN12C renal
# [48] = test system: SNB-19 CNS
# [49] = test system: SNB-75 CNS
# [50] = test system: SR leukemia
# [51] = test system: SW-620 colon
# [52] = test system: T-47D breast
# [53] = test system: TK-10 renal
# [54] = test system: U251 CNS
# [55] = test system: UACC-257 melanoma
# [56] = test system: UACC-62 melanoma
# [57] = test system: UO-31 renal
# [58] = test system: KM12 colon
# [59] = test system: M14 melanoma
structure (smiles),measurement,setting,value
COC(=O)Cc1c2n(c3ccccc13)C(=O)N1c3ccccc3C(CC(=O)OC)C21 (stereo unspecified),TGI,[1],> 100 µM
same,TGI,[2],> 100 µM
same,TGI,[3],> 100 µM
same,TGI,[4],> 100 µM
same,TGI,[5],93.9 µM
same,TGI,[6],> 100 µM
same,TGI,[7],> 100 µM
same,TGI,[8],> 100 µM
same,TGI,[9],> 100 µM
same,TGI,[10],> 100 µM
same,TGI,[11],> 100 µM
same,TGI,[12],> 100 µM
same,TGI,[13],> 100 µM
same,TGI,[14],> 100 µM
same,TGI,[15],38.5 µM
same,TGI,[16],27.5 µM
same,TGI,[17],> 100 µM
same,TGI,[18],> 100 µM
same,TGI,[19],71.6 µM
same,TGI,[20],> 100 µM
same,TGI,[21],> 100 µM
same,TGI,[22],> 100 µM
same,TGI,[23],> 100 µM
same,TGI,[24],67.3 µM
same,TGI,[25],> 100 µM
same,TGI,[26],> 100 µM
same,TGI,[27],> 100 µM
same,TGI,[28],> 100 µM
same,TGI,[29],64.6 µM
same,TGI,[30],33.6 µM
same,TGI,[31],> 100 µM
same,TGI,[32],> 100 µM
same,TGI,[33],> 100 µM
same,TGI,[34],57.1 µM
same,TGI,[35],> 100 µM
same,TGI,[36],> 100 µM
same,TGI,[37],> 100 µM
same,TGI,[38],> 100 µM
same,TGI,[39],64 µM
same,TGI,[40],> 100 µM
same,TGI,[41],68.2 µM
same,TGI,[42],49.4 µM
same,TGI,[43],> 100 µM
same,TGI,[44],> 100 µM
same,TGI,[45],> 100 µM
same,TGI,[46],> 100 µM
same,TGI,[47],> 100 µM
same,TGI,[48],49.8 µM
same,TGI,[49],28.5 µM
same,TGI,[50],> 100 µM
same,TGI,[51],> 100 µM
same,TGI,[52],> 100 µM
same,TGI,[53],47.7 µM
same,TGI,[54],> 100 µM
same,TGI,[55],> 100 µM
same,TGI,[56],> 100 µM
same,TGI,[57],> 100 µM
CN(C)C(=O)/N=C1\SC(=Nc2ccccc2)C(=Nc2ccccc2)N1c1ccc([N+](=O)[O-])cc1,TGI,[2],> 100 µM
same,TGI,[5],> 100 µM
same,TGI,[6],> 100 µM
same,TGI,[7],> 100 µM
same,TGI,[8],> 100 µM
same,TGI,[9],> 100 µM
same,TGI,[11],> 100 µM
same,TGI,[12],> 100 µM
same,TGI,[13],> 100 µM
same,TGI,[14],> 100 µM
same,TGI,[15],> 100 µM
same,TGI,[17],> 100 µM
same,TGI,[18],> 100 µM
same,TGI,[19],> 100 µM
same,TGI,[20],> 100 µM
same,TGI,[58],> 100 µM
same,TGI,[59],> 100 µM
same,TGI,[22],> 100 µM
same,TGI,[23],> 100 µM
same,TGI,[24],> 100 µM
same,TGI,[25],> 100 µM
same,TGI,[26],> 100 µM
same,TGI,[27],> 100 µM
same,TGI,[28],> 100 µM
same,TGI,[29],> 100 µM
same,TGI,[30],> 100 µM
same,TGI,[31],> 100 µM
same,TGI,[32],> 100 µM
same,TGI,[33],> 100 µM
same,TGI,[35],> 100 µM
same,TGI,[36],> 100 µM
same,TGI,[37],> 100 µM
same,TGI,[38],> 100 µM
same,TGI,[39],> 100 µM
same,TGI,[41],> 100 µM
same,TGI,[43],> 100 µM
same,TGI,[44],> 100 µM
same,TGI,[45],> 100 µM
same,TGI,[46],> 100 µM
same,TGI,[47],> 100 µM
same,TGI,[48],> 100 µM
same,TGI,[49],> 100 µM
same,TGI,[50],> 100 µM
same,TGI,[52],> 100 µM
same,TGI,[54],> 100 µM
same,TGI,[56],> 100 µM
same,TGI,[57],> 100 µM
O=C1C=CC(=O)c2c(O)c(N3CCN(c4ncccn4)CC3)c(Cl)c(O)c21,TGI,[1],3.1 µM
same,TGI,[2],6.49 µM
same,TGI,[3],22.6 µM
same,TGI,[4],5.42 µM
same,TGI,[5],3.86 µM
same,TGI,[6],4.4 µM
same,TGI,[7],4.24 µM
same,TGI,[8],3.36 µM
same,TGI,[9],12.9 µM
same,TGI,[10],24.8 µM
same,TGI,[11],25.7 µM
same,TGI,[12],3.14 µM
same,TGI,[14],0.766 µM
same,TGI,[15],5.63 µM
same,TGI,[16],4.72 µM
same,TGI,[17],7.12 µM
same,TGI,[18],6.73 µM
same,TGI,[19],3.43 µM
same,TGI,[20],5.07 µM
same,TGI,[58],15.2 µM
same,TGI,[21],3.55 µM
same,TGI,[59],3.45 µM
same,TGI,[22],3.63 µM
same,TGI,[23],3.32 µM
same,TGI,[24],3.75 µM
same,TGI,[25],3.29 µM
same,TGI,[26],3.75 µM
same,TGI,[27],5.5 µM
same,TGI,[28],44.8 µM
same,TGI,[29],4.59 µM
same,TGI,[30],> 47.6 µM
same,TGI,[31],4.42 µM
same,TGI,[32],8.69 µM
same,TGI,[33],3.16 µM
same,TGI,[34],3.69 µM
same,TGI,[35],19.8 µM
same,TGI,[36],6.37 µM
same,TGI,[37],8.88 µM
same,TGI,[39],3.51 µM
same,TGI,[40],7.88 µM
same,TGI,[41],25.5 µM
same,TGI,[42],3.63 µM
same,TGI,[43],3.47 µM
same,TGI,[44],4.57 µM
same,TGI,[45],3.79 µM
same,TGI,[46],38.6 µM
same,TGI,[47],3.43 µM
same,TGI,[48],18 µM
same,TGI,[49],21.8 µM
same,TGI,[50],37.8 µM
same,TGI,[51],2.97 µM
same,TGI,[52],5.7 µM
same,TGI,[53],3.47 µM
same,TGI,[54],12 µM
same,TGI,[55],3.45 µM
same,TGI,[56],6.02 µM
same,TGI,[57],4.03 µM
